Where two headings read alike, the source gives them in different places. Blank lines part the entries; values can stand above or below the compound they belong to.
Legend:
[1] = Pharmacokinetic (PK) assessment in rats; format: in vivo; details: for Fabs, % (from AUCINF) / Fabs, % (from AUClast): PO 10 mg/kg versus IV 2 mg/kg; for C0 / Cmax / MRT inf / Tmax / clearance / MRT last / half-life / CL/F / Vd/F / AUC(0-inf) / AUC(0-t) / Vd: rat, plasma; for MRT last: read-out: MRTlast; for half-life: read-out: T ½ (converted); for Vd/F: read-out: Vz/F
PAK1 = PAK1 (Homo sapiens, UniProt Q13153); assay: PAK1 IC50 determination, Z'-LYTE kinase assay; format: biochemical; details: [ATP]=10×Km; [PAK1]=1 ng; read-out: IC50 against PAK1
PAK1, sequence (Q13153 whole entry): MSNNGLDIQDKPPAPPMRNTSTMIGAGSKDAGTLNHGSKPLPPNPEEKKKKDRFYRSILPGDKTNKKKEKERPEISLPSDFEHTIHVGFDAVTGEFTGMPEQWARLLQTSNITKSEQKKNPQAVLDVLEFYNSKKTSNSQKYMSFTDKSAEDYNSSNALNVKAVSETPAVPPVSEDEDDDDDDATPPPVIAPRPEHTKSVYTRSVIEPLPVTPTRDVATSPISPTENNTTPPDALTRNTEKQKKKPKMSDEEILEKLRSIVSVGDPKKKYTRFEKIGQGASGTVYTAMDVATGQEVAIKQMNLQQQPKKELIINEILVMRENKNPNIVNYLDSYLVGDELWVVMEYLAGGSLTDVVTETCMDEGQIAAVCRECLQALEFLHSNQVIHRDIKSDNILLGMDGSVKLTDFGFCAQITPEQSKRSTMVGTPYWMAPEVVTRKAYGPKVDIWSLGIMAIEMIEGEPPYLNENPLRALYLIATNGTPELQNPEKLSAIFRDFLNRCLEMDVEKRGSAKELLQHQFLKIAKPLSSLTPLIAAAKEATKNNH
Protocol: Protocol for determining IC50 Values for test compounds at [ATP]=10×Km; [PAK1]=1 ng
Add 2 ml 5× Kinase Buffer to 8 ml water to prepare […] of Kinase Buffer A.
• Thaw the concentrated stock of test compound at room temperature. • 2.1. Add 10 μl of 100% DMSO to row A, columns 2-11 (wells A2-A11) in a 96-well assay plate (non-binding surface). To well A1, add 15 μl of the concentrated stock of test compound. This will be the highest concentration of test compound in a 10-point titration curve. Use a concentration that is 100× the final desired 1× concentration per 10 μl kinase reaction. For example, if the final 1× concentration of 100 μM is desired for the highest concentration of test compound in the 10 point titration curve, add 15 μl of 10 mM test compound to well A1. • 2.2. Titrate the 100× test compound three-fold across the assay plate from well A1 to well A10. To perform this threefold titration, transfer 5 μl of the 100× test compound from well A1 to the 10 μl of 100% DMSO in well A2. Repeat for wells A2-A10. Discard the final 5 μl from well A10 so that all wells contain 10 μl. […] This completes the 10-point three-fold titration of test compound at 100× concentration. • 2.3. Transfer a 2 μl aliquot of the 100× test compound titration series from each well in row A of the 96-well assay plate (wells A1-A12) to row B (wells B1-B12). Add 48 μl of complete kinase reaction buffer to each well in row B to dilute the 100× three-fold titration series of test compound to 4× (the DMSO will also be diluted, to 4%). • 2.4. Transfer 2.5 μl of the 4× concentrated three-fold titration series of test compound from row B of the 96-well assay plates to quadruplicate wells of a 384-well assay plate. Each well in columns 21-24 should contain 2.5 μl of 4% DMSO (no compound) in complete kinase reaction buffer. This 2.5 μl addition of 4× test compound in 4% DMSO produces a 1× concentration of test compound in 1% DMSO for a 10 μl kinase reaction. • 2.5. Dispense 2.5 μl of complete kinase reaction buffer to each well in columns 23-24 of the 384-well assay plate.
• 1. Prepare 500 μl of 4 μM Z′-LYTE® Phospho-peptide by adding 2 μl of 1 mM Z′-LYTE® Phospho-peptide to 498 μl of complete kinase reaction buffer. • 2. Dispense 5 μl of the 4 μM Z′-LYTE® Phospho-peptide (2×) to each well in column 24 of the 384-well assay plate. • 3. Prepare 1000 μl of 4 μM Z′-LYTE® Peptide Substrate (2×)/2× kinase solution in complete kinase reaction buffer. If necessary, prepare an intermediate dilution of the kinase in complete kinase reaction buffer before preparing the Z′-LYTE™ Peptide Substrate (2×)/2× kinase solution. Use the appropriate 2× kinase concentration in the assay to phosphorylate 20-50% of the 0% inhibition controls at the ATP concentration desired. • 4. […]

[2] = Microsomal stability, rat (RLM); format: in vitro ADME; details: rat microsomes; for microsomal CLint / half-life: liver microsomes; for half-life: read-out: t½; for CLh: in mL/min/kg (unit assumed)
[3] = tested on: other PAK family members (PAK2, PAK3, PAK4, PAK6, PAK7); assay: Inhibitory activity against other PAK family members; format: biochemical; details: in words
Protocol: A cell-based small molecule screening with 50,024 compounds was performed based on AML cell lines that grow in a PAK1-dependent manner, which has been previously described (Pandolfi et al., 2015). This was followed by single point PAK1 enzymatic activity screening against 360 compounds. Forty-six identified compounds that scored positive in this assay were subjected to enzymatic activity assays against other PAK family kinases including PAK2, PAK3, PAK4, PAK6, and PAK7. […] Those compounds were studied in further detail and key biochemical, pharmacokinetic, and structure-activity characteristics were determined.

larger kinase panel = assay: Selectivity against a larger kinase panel; format: binding; details: in words
[4] = Microsomal stability, human (HLM); format: in vitro ADME; details: human microsomes; for CLh: in mL/min/kg (unit assumed); for microsomal CLint / half-life: liver microsomes; for half-life: read-out: t½
[5] = Microsomal stability, mouse (MLM); format: in vitro ADME; details: for microsomal CLint / half-life: liver microsomes; for half-life: read-out: t½; for ER / CLh: mouse microsomes; for CLh: in mL/min/kg (unit assumed)
[6] = iv, 2 mg/kg, IV, 2 mg/kg, mean, read-out: AUCINF
[7] = iv, 2 mg/kg, IV, 2 mg/kg, mean, read-out: AUClast
[8] = iv, 2 mg/kg, IV, 2 mg/kg, mean, read-out: Vss
[9] = iv, 2 mg/kg, IV, 2 mg/kg, mean, read-out: Vz
[10] = iv, 2 mg/kg, IV, dose 2 mg/kg, summary section, no unit printed there, read-out: AUCINF, IV plasma
[11] = iv, 2 mg/kg, IV, dose 2 mg/kg, summary section, no unit printed there, read-out: AUClast, IV plasma
[12] = po, 10 mg/kg, PO, 10 mg/kg, mean, read-out: AUCINF
[13] = po, 10 mg/kg, PO, 10 mg/kg, mean, read-out: AUClast
[14] = po, 10 mg/kg, PO, dose 10 mg/kg, summary section, no unit printed there, read-out: AUCINF, PO plasma
[15] = po, 10 mg/kg, PO, dose 10 mg/kg, summary section, no unit printed there, read-out: AUClast, PO plasma

K el ([1]; IV, 2 mg/kg, mean): 3.03 h⁻¹ | Fabs, % (from AUCINF) [1]: 3.8% | Fabs, % (from AUClast) [1]: 3.8% | K el ([1]; PO, 10 mg/kg, mean): 1.05 h⁻¹ | C0 ([1]; IV, 2 mg/kg, mean): 3150 ng/mL | Cmax ([1]; IV, 2 mg/kg, mean): 2210 ng/mL | MRT inf ([1]; IV, 2 mg/kg, mean): 0.3 h | Tmax ([1]; IV, 2 mg/kg, mean): 4.8 min | clearance ([1]; IV, 2 mg/kg, mean): 36.7 mL/min/kg | MRT last ([1]; IV, 2 mg/kg, mean): 0.29 h | half-life ([1]; IV, 2 mg/kg, mean): 13.8 min | CL/F ([1]; PO, 10 mg/kg, mean): 974 mL/min/kg | Cmax ([1]; PO, 10 mg/kg, mean): 202 ng/mL | MRT inf ([1]; PO, 10 mg/kg, mean): 0.84 h | Tmax ([1]; PO, 10 mg/kg, mean): 19.8 min | MRT last ([1]; PO, 10 mg/kg, mean): 0.75 h | half-life ([1]; PO, 10 mg/kg, mean): 41.4 min | Vd/F ([1]; PO, 10 mg/kg, mean): 56.2 L/kg | AUC(0-inf) [1, 6]: 911 ng·h/mL | AUC(0-t) [1, 7]: 909 ng·h/mL | Vd [1, 8]: 0.65 L/kg | Vd [1, 9]: 0.73 L/kg | AUC(0-inf) [1, 10]: 911 ng·h/mL | AUC(0-t) [1, 11]: 909 ng·h/mL | AUC(0-inf) [1, 12]: 175 ng·h/mL | AUC(0-t) [1, 13]: 171 ng·h/mL | AUC(0-inf) [1, 14]: 175 ng·h/mL | AUC(0-t) [1, 15]: 171 ng·h/mL | IC50 (PAK1): 900 nM | microsomal CLint [2]: 34 µL/min/mg | half-life [2]: 81.5 min | ER [2]: 0.53 | CLh [2]: 28.97 | inhibition against a larger kinase panel (larger kinase panel): no significant inhibition | ER [4]: 0.66 | CLh [4]: 14.31 | microsomal CLint [4]: 38.8 µL/min/mg | half-life [4]: 71.4 min | microsomal CLint [5]: 44.4 µL/min/mg | half-life [5]: 62.4 min | ER [5]: 0.66 | CLh [5]: 59.41
Structure (SMILES): COc1cccc(-c2oncc2CN2CCN(C(C)=O)CC2)c1 [Compound T813-0242, 1-(4-((5-(3-Methoxyphenyl)isoxazol-4-yl)methyl)piperazin-1-yl)ethanone]
inhibitory activity against any of the other PAK family members [3]: no significant inhibitory activity

K el ([1]; IV, 2 mg/kg, mean): 0.42 h⁻¹ | Fabs, % (from AUCINF) [1]: 9.4% | Fabs, % (from AUClast) [1]: 9.1% | K el ([1]; PO, 10 mg/kg, mean): 0.37 h⁻¹ | C0 ([1]; IV, 2 mg/kg, mean): 1010 ng/mL | Cmax ([1]; IV, 2 mg/kg, mean): 740 ng/mL | MRT inf ([1]; IV, 2 mg/kg, mean): 1.69 h | Tmax ([1]; IV, 2 mg/kg, mean): 4.8 min | clearance ([1]; IV, 2 mg/kg, mean): 46.8 mL/min/kg | MRT last ([1]; IV, 2 mg/kg, mean): 1.46 h | half-life ([1]; IV, 2 mg/kg, mean): 99.6 min | CL/F ([1]; PO, 10 mg/kg, mean): 525 mL/min/kg | Cmax ([1]; PO, 10 mg/kg, mean): 85.7 ng/mL | MRT inf ([1]; PO, 10 mg/kg, mean): 3.01 h | Tmax ([1]; PO, 10 mg/kg, mean): 70.2 min | MRT last ([1]; PO, 10 mg/kg, mean): 2.52 h | half-life ([1]; PO, 10 mg/kg, mean): 112 min | Vd/F ([1]; PO, 10 mg/kg, mean): 84.8 L/kg | AUC(0-inf) [1, 6]: 714 ng·h/mL | AUC(0-t) [1, 7]: 695 ng·h/mL | Vd [1, 8]: 4.77 L/kg | Vd [1, 9]: 6.74 L/kg | AUC(0-inf) [1, 10]: 714 ng·h/mL | AUC(0-t) [1, 11]: 695 ng·h/mL | AUC(0-inf) [1, 12]: 334 ng·h/mL | AUC(0-t) [1, 13]: 315 ng·h/mL | AUC(0-inf) [1, 14]: 334 ng·h/mL | AUC(0-t) [1, 15]: 315 ng·h/mL | IC50 (PAK1): 5000 nM | microsomal CLint [2]: 159 µL/min/mg | half-life [2]: 17.4 min | ER [2]: 0.84 | CLh [2]: 46.14 | inhibition against a larger kinase panel (larger kinase panel): no significant inhibition | ER [4]: 0.83 | CLh [4]: 18.11 | microsomal CLint [4]: 114 µL/min/mg | half-life [4]: 24.3 min | microsomal CLint [5]: 243 µL/min/mg | half-life [5]: 11.4 min | ER [5]: 0.91 | CLh [5]: 82.27
Structure (SMILES): CCC1CCCCN1c1cc(C)nc2nc(-c3ccc(C)cc3)nn12 (stereo not drawn) [Compound D245-0091, 7-(2-Ethylpiperidin-1-yl)-5-methyl-2-(p-tolyl)-[1,2,4]triazolo[1,5-a]pyrimidine]
inhibitory activity against any of the other PAK family members [3]: no significant inhibitory activity

K el ([1]; IV, 2 mg/kg, mean): 0.07 h⁻¹ | C0 ([1]; IV, 2 mg/kg, mean): 71.7 ng/mL | Cmax ([1]; IV, 2 mg/kg, mean): 53.4 ng/mL | MRT inf ([1]; IV, 2 mg/kg, mean): 12.3 h | Tmax ([1]; IV, 2 mg/kg, mean): 4.8 min | clearance ([1]; IV, 2 mg/kg, mean): 214 mL/min/kg | MRT last ([1]; IV, 2 mg/kg, mean): 6.51 h | half-life ([1]; IV, 2 mg/kg, mean): 636 min | Cmax ([1]; PO, 10 mg/kg, mean): 17.4 ng/mL | Tmax ([1]; PO, 10 mg/kg, mean): 200 min | MRT last ([1]; PO, 10 mg/kg, mean): 3.97 h | AUC(0-inf) [1, 6]: 156 ng·h/mL | AUC(0-t) [1, 7]: 129 ng·h/mL | Vd [1, 8]: 158 L/kg | Vd [1, 9]: 197 L/kg | AUC(0-t) [1, 13]: 92.7 ng·h/mL | IC50 (PAK1): 470 nM | microsomal CLint [2]: 1830 µL/min/mg | half-life [2]: 1.51 min | ER [2]: 0.98 | CLh [2]: 54.10 | inhibition against a larger kinase panel (larger kinase panel): no significant inhibition | ER [4]: 0.89 | CLh [4]: 19.24 | microsomal CLint [4]: 199 µL/min/mg | half-life [4]: 13.9 min | microsomal CLint [5]: 664 µL/min/mg | half-life [5]: 4.18 min | ER [5]: 0.97 | CLh [5]: 87.00
Structure (SMILES): CSc1ccc(-c2nc3cccc(C)n3c2Nc2ccc3c(c2)OCCO3)cc1 [Compound C273-0489]
inhibitory activity against any of the other PAK family members [3]: no significant inhibitory activity
